# Patent publication US20260327193A1, “INHIBITORS OF PLASMA KALLIKREIN” (Rezolute, Inc., priority 2022, published 2026)
# Legend:
# Plasma Kallikrein [1] = target: T1, Plasma Kallikrein (Homo sapiens, UniProt P03952); assay: Plasma kallikrein protease inhibition assay, purified enzyme; assay type: biochemical; set-up: NS0-derived Gly20-Ala638, with a C-terminal 60-His tag; 60-His (so in the source) (C); purchased R&D Systems 2497-SE; host or cells: Mouse myeloma cell line, NS0; details: 10 μM Z-FR-AMC substrate, 20-minute pre-incubation, pH 8.0/8.5, room temperature, read-out: Purified PKal IC50
# Description: (§1) Plasma kallikrein protease inhibition assay. Two methods for determining the IC50 of a test compound against Plasma Kallikrein are provided.
# In the first method was used a reaction buffer composed of 25 mM Tris-HCl (pH 8.0), 100 mM NaCl (pH 8.5), 0.01% Brij35, and 1% DMSO (final). The enzyme used was Plasma Kallikrein (R&D Systems Cat #2497-SE; Recombinant Human Plasma Kallikrein, expressed in Mouse myeloma cell line, NS0-derived Gly20-Ala638, with a C-terminal 60-His tag. MW=70 kDa).
# The enzyme was activated by dilution to 200 μg/mL in activation buffer (100 mM Tris, 10 mM CaCl2, 150 mM NaCl, pH 7.5 (TCN), and then combined with an equal volume of 20 μg/mL thermolysin to form a reaction buffer. Each test compound was then dissolved in DMSO and delivered into the reaction buffer. The reaction was initiated by delivering a substrate solution containing 10 μM Z-FR-AMC (Enzo Cat #P-139; AMC: 7-Amino-4-methylcoumarin) into the reaction well after a 20-minute pre-incubation period.
# Measurement was conducted with En Vision (PE) with excitation and emission wavelengths of 355 nm and 460 nm, respectively. […]. The enzyme activities were monitored every 5 minutes as a time-course measurement of the increase in signal from fluorescently labeled peptide substrate for 120 minutes at room temperature.
# Data was analyzed by taking slope*(signal/time) of the linear portion of measurements. Slope was calculated using Excel, and curve fits were performed using Prism software.
# [2] = Caco-2 permeability assay; assay type: in vitro ADME; details: human, 10 μM test compound, pH 7.4, 37° C., 120 minutes, direction of the value not given, read-out: Caco-2 Perm
# Description: Permeability Assay. A permeability study was conducted using Caco-2 cells (ECACC Cat. no. 09042001) seeded on cell inserts plate (Millicell, Cat #PSHT010R^5) at a density of 80,000 cells per well, and the cells were maintained for 18-21 days in culture medium (1×DMEM with 10% FBS, 0.1 mg/mL Penicillin/Streptomycin). The culture medium was changed every alternate day. Prior to the experiments, the integrity of the cellular monolayer was evaluated by measuring the TEER value using a volt ohm meter and STX100C96 electrode. Only monolayers with TEER values greater than 800 ohm·cm^2 in buffer after the first wash were used.
# An assay buffer (HBSS with Ca+2 and Mg+2 buffered with 10 mM HEPES and 25 mM D-Glucose, pH-7.4) was used on apical side as well as on basolateral side.
# An intermediate stock solution of a test compound was prepared in DMSO at a concentration of 1 mM in DMSO. This stock solution was spiked in the assay buffer to achieve a target test compound concentration of 10 μM. The organic content of final drug preparation was 1.0% v/v. The bidirectional permeability experiment was done in singlet and the sample analysis was done in duplicate.
# The cultured cell monolayer was washed twice with assay buffer (0.4 mL and 0.8 mL was added to the apical and basolateral sides, respectively, of the culture plate), and then buffers from both compartments were discarded.
# For the apical to basal (AP>BL) experiment, aliquots of 0.4 mL donor solution (assay buffer, pH 7.4 containing test compound) and 0.8 mL of receiver solutions (assay buffer, pH 7.4, only) were added to the apical and basolateral compartments, respectively. For the basal to apical (BL>AP) experiment, aliquots of 0.8 mL donor solution (assay buffer pH-7.4 containing test compound) and 0.4 mL of receiver solutions (assay buffer, pH-7.4) were added to the basolateral and apical compartments, respectively. The plate was then kept in an incubator at 37° C. for 120 minutes.
# Control experiments with Propranolol (High Permeability), Atenolol (Low Permeability), Digoxin (High Efflux-Pgp substrate), and Digoxin+Verapamil (Pgp Inhibitor) in both directions (AP>BL and BL>AP) were performed in separate wells on the same experiment day.
# After the completion of the transport experiment, the integrity of the cell monolayer was evaluated by measuring the Lucifer Yellow (LY) rejection. To do this, 400 μL of 10 μM LY was added to each well of the filter plate and incubated for 1 hour at 37° C. Subsequently, the samples were collected from the basolateral compartments, and the LY fluorescence was measured using an excitation wavelength of 485 nm and an emission wavelength of 530 nm. The percent LY rejection across the cell monolayer was calculated by measuring fluorescence in the receiver plate (basolateral compartment) compared to theoretical equilibrium standard.
# The study samples (collected from apical and basolateral compartments after 120 min incubation) were analyzed by LCMS/MS, following which the Papp of the compound(s) was calculated in both apical to basal and basal to apical directions. Papp=([DBL]×VBL)/(A×t×[DAP]) where: [DBL]=final drug concentration on the basolateral side, VBL=volume of the basolateral compartment, A=surface area of the cell culture, t=total incubation time, and [DAP]=initial drug concentration on the apical side.
# Plasma Kallikrein [3] = target: T1, Plasma Kallikrein; assay: Plasma kallikrein activity in pooled human plasma; assay type: biochemical; set-up: Plasma Kallikrein activity was also measured in pooled human plasma; from tissue; host or cells: pooled human plasma; details: Z-FR-AMC substrate, activated with 10% Actin FS solution, 10 minutes, read-out: Pooled Human Plasma PKal IC50
# Description: as §1
# Second, Plasma Kallikrein activity was also measured in pooled human plasma. First, a 10% Actin FS solution was prepared in assay buffer. Each test compound was dissolved in DMSO and delivered to the reaction mixture along with Z-FR-AMC substrate and pooled human plasma. The multi-well reaction plate was incubated for five minutes at room temperature. To initiate the reaction, the 10% Actin FS solution was added to each well, and kinetic measurements were taken at Ex/Em at 355/460 nm. The fluorescence signal was recorded every 30 seconds for a total of 10 minutes.
# T1 sequence (P03952 391-638 limits assumed): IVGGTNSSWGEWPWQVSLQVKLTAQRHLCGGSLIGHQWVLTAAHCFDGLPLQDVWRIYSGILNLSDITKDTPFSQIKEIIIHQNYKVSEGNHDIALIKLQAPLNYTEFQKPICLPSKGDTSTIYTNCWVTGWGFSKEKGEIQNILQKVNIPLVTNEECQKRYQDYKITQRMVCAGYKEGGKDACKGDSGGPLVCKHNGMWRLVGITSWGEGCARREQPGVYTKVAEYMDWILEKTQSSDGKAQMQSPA
# T1 sequence (P03952 20-390 partner limits assumed): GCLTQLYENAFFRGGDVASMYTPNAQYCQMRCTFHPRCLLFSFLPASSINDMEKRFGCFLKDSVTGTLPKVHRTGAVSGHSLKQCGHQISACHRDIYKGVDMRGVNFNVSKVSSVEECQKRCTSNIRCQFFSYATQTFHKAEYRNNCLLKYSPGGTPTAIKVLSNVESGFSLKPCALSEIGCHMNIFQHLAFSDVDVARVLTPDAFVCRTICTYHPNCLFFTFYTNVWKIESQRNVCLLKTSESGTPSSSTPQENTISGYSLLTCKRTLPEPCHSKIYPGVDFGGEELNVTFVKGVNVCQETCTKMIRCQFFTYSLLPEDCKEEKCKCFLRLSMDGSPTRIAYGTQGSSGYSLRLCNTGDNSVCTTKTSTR
Compound,IC50 (Plasma Kallikrein [1]),"Papp at 2 h, 10 µM [2]",IC50 (Plasma Kallikrein [3])
"N#CCCc1ccc(Cn2cc(C(=O)NCc3ccc(C(=N)N)cc3)cn2)cc1 [Example 3, N-(4-carbamimidoylbenzyl)-1-(4-(2-cyanoethyl)benzyl)-1H-pyrazole-4-carboxamide]",< 1 nM,< 2 ×10⁻⁶ cm/s,< 100 nM
"N#CCc1ccc(Cn2cnc(C(=O)NCc3ccc(C(=N)N)cc3)c2)cc1 [Example 9, N-(4-carbamimidoylbenzyl)-1-(4-(cyanomethyl)benzyl)-1H-imidazole-4-carboxamide]",1 to 10 nM,2 to 10 ×10⁻⁶ cm/s,–
"N=C(N)c1ccc(CNC(=O)c2cnn(Cc3ccc(CC(N)=O)cc3)c2)cc1 [Example 18, 1-(4-(2-amino-2-oxoethyl)benzyl)-N-(4-carbamimidoylbenzyl)-1H-pyrazole-4-carboxamide]",1 to 10 nM,< 2 ×10⁻⁶ cm/s,–
"N#Cc1ccn(Cc2ccc(Cn3cc(C(=O)NCc4ccc(C(=N)N)cc4)cn3)cc2)c1 [Example 26, N-(4-carbamimidoylbenzyl)-1-(4-((3-cyano-1H-pyrrol-1-yl)methyl)benzyl)-1H-pyrazole-4-carboxamide]",< 1 nM,< 2 ×10⁻⁶ cm/s,< 100 nM
"COCCc1ccc(Cn2ncc(C(=O)NCc3ccc(C(=N)N)cc3)c2COC)cc1 [Example 87, N-(4-carbamimidoylbenzyl)-1-(4-(2-methoxyethyl)benzyl)-5-(methoxymethyl)-1H-pyrazole-4-carboxamide]",10 to 100 nM,< 2 ×10⁻⁶ cm/s,< 100 nM
"N#Cc1cccc(Cc2ccc(Cn3cc(C(=O)NCc4ccc(C(=N)N)cc4F)cn3)cc2)c1 [Example 50, N-(4-carbamimidoyl-2-fluorobenzyl)-1-(4-(3-cyanobenzyl)benzyl)-1H-pyrazole-4-carboxamide]",< 1 nM,< 2 ×10⁻⁶ cm/s,< 100 nM
"N#Cc1cccc(Cc2ccc(Cn3cc(C(=O)NCc4ccc(C(=N)N)c(F)c4)cn3)cc2)c1 [Example 49, N-(4-carbamimidoyl-3-fluorobenzyl)-1-(4-(3-cyanobenzyl)benzyl)-1H-pyrazole-4-carboxamide]",< 1 nM,< 2 ×10⁻⁶ cm/s,100 to 1000 nM
"CC(C)(C#N)c1ccc(Cn2cc(C(=O)NCc3ccc(C(=N)N)c(F)c3)cn2)cc1 [Example 43, N-(4-carbamimidoyl-3-fluorobenzyl)-1-(4-(2-cyanopropan-2-yl)benzyl)-1H-pyrazole-4-carboxamide]",1 to 10 nM,< 2 ×10⁻⁶ cm/s,< 100 nM
"COc1cc(CNC(=O)c2cnn(Cc3ccc(C(C)(C)C#N)cc3)c2)cc(F)c1C(=N)N [Example 48, N-(4-carbamimidoyl-3-fluoro-5-methoxybenzyl)-1-(4-(2-cyanopropan-2-yl)benzyl)-1H-pyrazole-4-carboxamide]",10 to 100 nM,< 2 ×10⁻⁶ cm/s,100 to 1000 nM
"COCCc1ccc(Cn2cc(C(=O)NCc3ccc(C(=N)N)cc3)cn2)cc1 [Example 15, N-(4-carbamimidoylbenzyl)-1-(4-(2-methoxyethyl)benzyl)-1H-pyrazole-4-carboxamide]",< 1 nM,2 to 10 ×10⁻⁶ cm/s,< 100 nM
"CN(C)C(=O)Cc1ccc(Cn2cc(C(=O)NCc3ccc(C(=N)N)cc3)cn2)cc1 [Example 33, N-(4-carbamimidoylbenzyl)-1-(4-(2-(dimethylamino)-2-oxoethyl)benzyl)-1H-pyrazole-4-carboxamide]",< 1 nM,< 2 ×10⁻⁶ cm/s,< 100 nM
"CC(C)(C#N)c1ccc(Cn2cc(C(=O)NCc3ccc(C(=N)N)cc3)cn2)cc1 [Example 7, N-(4-carbamimidoylbenzyl)-1-(4-(2-cyanopropan-2-yl)benzyl)-1H-pyrazole-4-carboxamide]",< 1 nM,< 2 ×10⁻⁶ cm/s,< 100 nM
"CC(C)(C#N)c1ccc(Cn2cc(C(=O)NCc3ccc(C(=N)N)cc3F)cn2)cc1 [Example 45, N-(4-carbamimidoyl-2-fluorobenzyl)-1-(4-(2-cyanopropan-2-yl)benzyl)-1H-pyrazole-4-carboxamide]",< 1 nM,2 to 10 ×10⁻⁶ cm/s,< 100 nM
"N#Cc1cccc(Cc2ccc(Cn3cc(C(=O)NCc4ccc(C(=N)N)cc4)cn3)cc2)c1 [Example 28, N-(4-carbamimidoylbenzyl)-1-(4-(3-cyanobenzyl)benzyl)-1H-pyrazole-4-carboxamide]",< 1 nM,< 2 ×10⁻⁶ cm/s,< 100 nM
"CNC(=O)Cc1ccc(Cn2cc(C(=O)NCc3ccc(C(=N)N)cc3)cn2)cc1 [Example 19, N-(4-carbamimidoylbenzyl)-1-(4-(2-(methylamino)-2-oxoethyl)benzyl)-1H-pyrazole-4-carboxamide]",< 1 nM,< 2 ×10⁻⁶ cm/s,< 100 nM
"N#CCCc1ccc(Cn2cnc(C(=O)NCc3ccc(C(=N)N)cc3)c2)cc1 [Example 4, N-(4-carbamimidoylbenzyl)-1-(4-(2-cyanoethyl)benzyl)-1H-imidazole-4-carboxamide]",< 1 nM,< 2 ×10⁻⁶ cm/s,–
"CC(C)(C#N)c1ccc(Cn2cnc(C(=O)NCc3ccc(C(=N)N)cc3)c2)cc1 [Example 8, N-(4-carbamimidoylbenzyl)-1-(4-(2-cyanopropan-2-yl)benzyl)-1H-imidazole-4-carboxamide]",1 to 10 nM,< 2 ×10⁻⁶ cm/s,–
"N#CCc1ccc(Cn2cc(C(=O)NCc3ccc(C(=N)N)cc3)cn2)cc1 [Example 1, N-(4-carbamimidoylbenzyl)-1-(4-(cyanomethyl)benzyl)-1H-pyrazole-4-carboxamide]",< 1 nM,< 2 ×10⁻⁶ cm/s,< 100 nM
